Data set [1] can be described thus: Hydrolytic stability of qABPs in media (Cy5 fluorescence over time). The format is physicochemical. The following applies: cell culture media (10% FBS), 24 h incubation. The method, then:
Supplementary Figure 1. E-2B-0B-2Quenching effect and stability of qABP 10. (A) The fluorescence for each probe (10 µM) was measured at Ex/Em: 640/670 nm. (B) The stability of qABP 10 in PBS and different cell culture media (supplemented with 10% FBS) was measured by monitoring the production of Cy5 fluorescence signal over time.
11 CO2- In-gel fluorescence: Cy5
Supplementary Figure 2. (A) Chemical structure of compound 11. (B) hGzmB labeling assay with 11. Recombinant human active GzmB (50 nM) was incubated with 8 or 11 (500 nM) for 1 h.
Protein samples were analyzed by SDS-PAGE and in-gel fluorescence scanning for Cy5 signal.
(1 picture or pasted object on this page, not shown here)
PBS RIPA Myelocult 17 In-gel fluorescence:
Supplementary Figure 8. Activity-based GzmA profiling. (A) Left: Dose-dependent labeling of GzmA with 16 and 17 in NK-92 cell lysates. Middle, Right: GzmA selective labeling in different cell lysates with 17 (Middle) and 16 (Right) (50 nM, 1 h, 37 °C). Briefly, cell lysates were prepared with RIPA lysis buffer, and 20 µg of proteins were incubated with 50 nM of 16 or 17 for 1 h at 37 °C and analyzed by SDS-PAGE. […]
dependent in situ labeling of GzmA in NK-92 cells with 14-17 (2 h, 37 °C). […] After denaturing with 4X SDS-reducing buffer, 20 µg of proteins were analyzed by SDS-PAGE and in-gel fluorescence scanning for Cy5 signal. […]

For data set [2], the system named is GzmB activity in NK-92 cells. As to the kind of experiment: Flow cytometry analysis of protein labeling by ABPs in NK-92 and MDA-MB-231 cells. The format is cell-based, human. The following applies: 5 μM. The method, then: Figure 3. GzmB ABPs selectively label active GzmB in cells. (A) Gel-based analysis of GzmB labeling by ABPs in NK-92 cells. 5x10^5 NK-92 cells were incubated with each ABP at varying concentrations for 2 h at 37 °C. After cell lysis, protein samples were analyzed by SDS-PAGE and in-gel fluorescence scanning for Cy5 signal. Expression of GzmB was confirmed by western blotting. (B) Gel-based analysis of GzmB labeling by qABP 10 in different cells. 2x10^6 NK-92, MDA-MB-231, Jurkat, and HEK cells were incubated with compound 10 (5 μM) at 37 °C for 2 h. After cell lysis, protein samples were analyzed by SDS-PAGE and in-gel fluorescence scanning for Cy5 signal. […] Protein samples were analyzed by SDS-PAGE and in-gel fluorescence scanning for Cy5 signal. […] Top: Histogram; Bottom: Mean fluorescence intensity (MFI) in MDA-MB-231 cells. […]
Histogram of flow cytometry data for NK-92 cells incubated with qABP 10. Right: Quantification of mean Cy5 fluorescence intensity. […]
3-5 mice/group. For all studies, mice were monitored by daily observation and serial tumor measurements and body weights.
Mice were treated with 20 mg/kg BEC i.v., 10 mg/kg anti-PD1 i.p., 5 mg/kg anti-CTLA4 i.p. or a combination of 10 mg/kg anti-PD-1 and 5 mg/kg anti-CTLA4. […] On day 9 post-treatment, the mice were injected with 2 nmol/g GzmB qABP i.v., followed by fluorescence imaging at 2, 4, 8, and 24 h. […]
(In general: A flow cytometer gives signals particle by particle.)

Take `CC[C@H](C)[C@H](NC(=O)CCCCCN1/C(=C/C=C/C=C/C2=[N+](CC)c3ccc(S(=O)(=O)O)cc3C2(C)C)C(C)(C)c2cc(S(=O)(=O)O)ccc21)C(=O)N[C@@H](CCC(=O)O)C(=O)N1CCC[C@H]1C(=O)NC(CS(=O)(=O)O)P(=O)(Oc1ccc(CCNC(=O)C2CCN(S(=O)(=O)c3ccccc3-c3c4ccc(=[N+]5CCc6ccccc65)cc-4oc4cc(N5CCc6ccccc65)ccc34)CC2)cc1)c1ccccc1` (stereo partly drawn) [Compound 10, Cy5-IEPCya^PhP-QSY21]: in data set [1], the hydrolyzed product result is listed as “less than 50%”. For the same molecule, the “fluorescence intensity in NK-92 cells relative to GzmB non-expressing MDA-MB-231 cells” value in data set [2] is recorded as “approximately 9.1 fold”. Besides, the “signal-to-noise (S/N), NK-92 vs MDA-MB-231 cells” value in data set [2] (37 °C, 2 h) turned out to be 9.09.

The values above are taken from paper doi:10.1101/2025.03.13.643086, “Granzyme-targeting quenched activity-based probes for assessing tumor response to immunotherapy” (bioRxiv, 2025).
